Measured values as given in patent US20220249454A1, “INHIBITORS OF MONOCARBOXYLATE TRANSPORTERS FOR CANCER IMMUNOTHERAPY” (NIROGY THERAPEUTICS, INC., priority 2021, published 2022).

How the values were obtained:
[1] = system: panel of solid and haemotological tumor cell lines (e.g., Hs578t, SiHa, MDA-MB-231); assay: MTS cell proliferation assay (cytotoxicity); assay type: cell-based; details: 72-96 hours, 10 mM lactate medium or RPMI 1640 medium, cell line not stated
Experimental: The anti-proliferation effect of MCT inhibition was investigated across a panel of solid and haemotological tumor cell lines. Cells were routinely cultured in their appropriate growth medium. On day 1, between 10,000-25,000 cells/well (e.g., Hs578t: 15,000 cells/well, SiHa: 10,000 cells/well, and MDA-MB-231: 25,000 cells/well) were plated into 96-well plates. 100 μL. of phosphate buffered saline solution was added to the external wells to prevent media evaporation. Plates were incubated in growth medium overnight at 37° C. in the presence of 5% CO2. On day 2, dry weight compound stocks were dissolved to a concentration of 10 mM in 100% DMSO. Compounds were further diluted in the assay medium; 10 mM lactate medium (without glucose, pyruvate, and glutamine) or RPMI 1640 medium (without pyruvate and glutamine) to generate a final dose range of 1 nM to 10 μM. Growth medium in the 96-well plate was replaced with the assay medium (10 mM lactate medium or RPMI medium or appropriate medium), and compounds were added to each well in the plate at different concentrations via serial dilution or pre-prepared solutions in assay medium. Plates were then incubated at 37° C. in the presence of 5% CO2 for a further 72-96 hours. On day 2-5, assay media was changed to 100 uL of DMEM/F12 and 20 μL of CellTiter 96 AQ MTS reagent was added to each well and the plate was returned to the incubator for 1-2 hours. MTS is bioreduced by NADPH or NADH produced by dehydrogenase enzymes in metabolically active cells into a coloured formazan product that is soluble in tissue culture medium. The amount of coloured formazan product is directly proportional to the number of living cells in culture. The absorbance of the plates was read on a Spectramax M5e plate reader using […] measurement wavelength. Dose response curves were plotted and IC50 values were calculated using GraphPad Prism. The IC50 value is equivalent to the concentration of compound that causes 50% inhibition of growth calculated from the compound treated signal to the vehicle treated signal.
Cytotoxicity of selected compounds is listed in Table 1, where IC50: A=<1 uM; B=1-10 uM; C=>10 uM; and NT=Not Tested.

[2] = system: monocarboxylate transporters; assay: Lactate detection assay in cancer cell lines (intracellular lactate, Lactate-glo); assay type: cell-based; details: 24 hours incubation
Experimental: Cells are maintained in their appropriate growth medium (RPMI medium with 2 g/L glucose, 2 mM L-glutamine supplemented with 10% FBS and P/S (growth medium). 15,000-25,000 cells were seeded into white 96-well plates in growth medium and incubated for 24 hours at 37° C. and 5% CO2. A duplicate plate was also seeded for normalization by an MTS assay. Dry weight compound stocks were dissolved to a concentration of 10 mM in 100% DMSO. Compounds were further diluted in the assay medium (Lactate media: 10 mM lactate, 5% FBS, and 1× P/S; Glucose media: RPMI, 5% FBS, and 1× P/S). Growth media was changed 24 hours later to assay medium containing 10 μM compound or vehicle (DMSO) control and incubated for 24 hours. Conditioned media was collected and the cells were washed in 200 μL ice-cold PBS. […] After a 5 minute incubation, 12.5 μL Neutralization solution (1M Trizma) is incubated for 1 minute. Intracellular lactate measurements were performed using a Lactate-glo kit (Promega). Briefly, the lactate detection reagent is mixed immediately before use and 50 μL is pipetted into each well and incubated at room temperature for 1 hour. Lactate is oxidized by enzymatic reactions to generate light. The luminescence is recorded using a Spectramax M5e plate reader and the concentration of lactate is determined using a known concentration of spiked lactate in PBS using GraphPad Prism.

[3] = biological target: T1, monocarboxylate transporter 4 (MCT4) (Homo sapiens, UniProt O15427); details: literature value; cited from earlier work
T1 sequence (O15427 2-465 limits assumed): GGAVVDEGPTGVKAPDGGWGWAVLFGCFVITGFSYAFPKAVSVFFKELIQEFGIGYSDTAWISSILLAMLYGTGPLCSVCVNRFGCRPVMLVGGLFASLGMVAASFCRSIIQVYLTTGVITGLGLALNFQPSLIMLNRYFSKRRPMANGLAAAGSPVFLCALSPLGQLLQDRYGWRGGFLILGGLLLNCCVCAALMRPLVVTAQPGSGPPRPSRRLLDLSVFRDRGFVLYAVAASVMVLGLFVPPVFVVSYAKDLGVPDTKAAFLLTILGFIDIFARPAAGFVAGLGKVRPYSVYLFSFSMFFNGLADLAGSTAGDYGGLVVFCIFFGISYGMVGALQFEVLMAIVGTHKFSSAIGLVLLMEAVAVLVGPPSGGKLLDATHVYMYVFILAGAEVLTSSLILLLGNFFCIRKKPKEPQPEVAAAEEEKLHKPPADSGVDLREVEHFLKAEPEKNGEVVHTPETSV
T1 sequence (P35613 140-385 partner limits assumed): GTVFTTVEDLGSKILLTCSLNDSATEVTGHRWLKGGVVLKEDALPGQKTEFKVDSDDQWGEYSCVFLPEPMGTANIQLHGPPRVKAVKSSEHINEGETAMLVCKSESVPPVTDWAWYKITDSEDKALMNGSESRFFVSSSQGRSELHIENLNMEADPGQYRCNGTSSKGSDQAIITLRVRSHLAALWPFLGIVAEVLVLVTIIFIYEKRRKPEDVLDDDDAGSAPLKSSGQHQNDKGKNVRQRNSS

[4] = biological target: T2, monocarboxylate transporter 1 (MCT1) (Homo sapiens, UniProt P53985); details: literature value; cited from earlier work
T2 sequence (P53985 1-500): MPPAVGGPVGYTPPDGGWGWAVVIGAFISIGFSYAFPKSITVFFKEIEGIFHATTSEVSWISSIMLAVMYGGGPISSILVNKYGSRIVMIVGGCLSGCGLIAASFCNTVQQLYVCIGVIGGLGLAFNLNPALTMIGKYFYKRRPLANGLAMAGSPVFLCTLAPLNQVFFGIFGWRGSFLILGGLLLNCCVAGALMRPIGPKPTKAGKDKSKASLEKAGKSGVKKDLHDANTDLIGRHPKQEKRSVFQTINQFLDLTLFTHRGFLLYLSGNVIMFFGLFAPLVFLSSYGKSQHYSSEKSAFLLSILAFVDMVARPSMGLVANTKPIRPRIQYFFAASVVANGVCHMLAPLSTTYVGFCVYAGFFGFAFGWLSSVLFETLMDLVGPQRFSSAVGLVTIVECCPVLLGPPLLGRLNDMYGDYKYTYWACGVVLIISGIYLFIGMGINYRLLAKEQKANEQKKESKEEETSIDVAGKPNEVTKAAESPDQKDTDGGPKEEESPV
T2 sequence (P35613 140-385 partner limits assumed): T1 sequence (P35613 140-385 partner limits assumed)

tumor cells = details: literature, Cell Reports 2019; cited from earlier work

For `CN(Cc1ccccc1)c1cc2oc(=O)c(C(=O)O)cc2s1` [Compound 1.001, 2-(benzyl(methyl)amino)-5-oxo-5H-thieno[3,2-b]pyran-6-carboxylic acid], the IC50 ([1]; Table 1 (Group 1)) was less than 1 µM and the IC50 [2] was less than 1 µM.

`CN(Cc1ccc(F)cc1)c1cc2oc(=O)c(C(=O)O)cc2s1` [Compound 1.002, 2-((4-fluorobenzyl)(methyl)amino)-5-oxo-5H-thieno[3,2-b]pyran-6-carboxylic acid] showed an IC50 ([1]; Table 1 (Group 1)) of less than 1 µM and an IC50 [2] of less than 1 µM.

`COc1cccc(C(=O)N(C)c2cc3oc(=O)c(C(=O)O)cc3s2)c1` [Compound 1.009, 2-(3-methoxy-N-methylbenzamido)-5-oxo-5H-thieno[3,2-b]pyran-6-carboxylic acid] showed an IC50 ([1]; Table 1 (Group 1)) of less than 1 µM and an IC50 [2] of less than 1 µM.

`COc1ccccc1C(=O)N(C)c1cc2oc(=O)c(C(=O)O)cc2s1` [Compound 1.017, 2-[(2-Methoxy-benzoyl)-methyl-amino]-5-oxo-5H-thieno[3,2-b]pyran-6-carboxylic acid] gave an IC50 ([1]; Table 1 (Group 1)) of less than 1 µM and an IC50 [2] of less than 1 µM.

`COc1cc(F)ccc1C(=O)N(C)c1cc2oc(=O)c(C(=O)O)cc2s1` [Compound 1.094, 2-(4-fluoro-2-methoxy-N-methylbenzamido)-5-oxo-5H-thieno[3,2-b]pyran-6-carboxylic acid] showed an IC50 ([1]; Table 1 (Group 1)) of less than 1 µM and an IC50 [2] of less than 1 µM.

`CN(C(=O)N1CCCCC1)c1cc2oc(=O)c(C(=O)O)cc2s1` [Compound 2.045, 2-(N-methylpiperidine-1-carboxamido)-5-oxo-5H-thieno[3,2-b]pyran-6-carboxylic acid] showed an IC50 ([1]; Table 2 (Group 2)) of less than 1 µM.

With `CN(C(=O)N1CCCC1)c1cc2oc(=O)c(C(=O)O)cc2s1` [Compound 2.046, 2-(N-methylpyrrolidine-1-carboxamido)-5-oxo-5H-thieno[3,2-b]pyran-6-carboxylic acid] the IC50 ([1]; Table 2 (Group 2)) was less than 1 µM.

In the case of `COc1cnccc1NC(=O)N(C)c1cc2oc(=O)c(C(=O)O)cc2s1` [Compound 2.047, 2-(3-(3-methoxypyridin-4-yl)-1-methylureido)-5-oxo-5H-thieno[3,2-b]pyran-6-carboxylic acid], the IC50 ([1]; Table 2 (Group 2)) is reported as less than 1 µM.

For `CN(C(=O)Nc1nc(C(C)(C)C)cs1)c1cc2oc(=O)c(C(=O)O)cc2s1` [Compound 2.048, 2-(3-(4-(tert-butyl)thiazol-2-yl)-1-methylureido)-5-oxo-5H-thieno[3,2-b]pyran-6-carboxylic acid], the IC50 ([1]; Table 2 (Group 2)) was less than 1 µM.

`CC(C)c1csc(NC(=O)N(C)c2cc3oc(=O)c(C(=O)O)cc3s2)n1` [Compound 2.049, 2-(3-(4-isopropylthiazol-2-yl)-1-methylureido)-5-oxo-5H-thieno[3,2-b]pyran-6-carboxylic acid] showed an IC50 ([1]; Table 2 (Group 2)) of less than 1 µM.

In the case of `CN(Cc1cccc(-c2ccc(F)cc2)c1)c1cc2oc(=O)c(C(=O)O)cc2s1` [Compound 2.050, 2-(((4′-fluoro-[1,1′-biphenyl]-3-yl)methyl)(methyl)amino)-5-oxo-5H-thieno[3,2-b]pyran-6-carboxylic acid], the IC50 ([1]; Table 2 (Group 2)) is reported as less than 1 µM.

`CN(C(=O)Nc1cc(C(C)(C)C)on1)c1cc2oc(=O)c(C(=O)O)cc2s1` [Compound 2.055, 2-(3-(5-(tert-butyl)isoxazol-3-yl)-1-methylureido)-5-oxo-5H-thieno[3,2-b]pyran-6-carboxylic acid] gave an IC50 ([1]; Table 2 (Group 2)) of less than 1 µM.

For `O=C(O)Cc1ccccc1Nc1c(Cl)cccc1Cl` [diclofenac], the IC50 [3] is given as 140 nM, the IC50 [4] is given as 1400 nM and the “concentration required to see efficacy in in vitro models” value (tumor cells) is given as 150 to 200 µM.
